# Where a SMILES comes first, the peptide text is derived from it. Bridges are numbered along the chain shown (N, C = ends). [ ]: non-standard residue; d: D form. The star is where a group is joined. ξ: configuration not given here. Phe(4-CH2CH2COOH) = N[C@@H](Cc1ccc(CCC(=O)O)cc1)C(=O)O; Phe(3-CF3) = N[C@@H](Cc1cccc(C(F)(F)F)c1)C(=O)O; Phe(4-CF3) = N[C@@H](Cc1ccc(C(F)(F)F)cc1)C(=O)O; Phe(4-COOH) = N[C@@H](Cc1ccc(C(=O)O)cc1)C(=O)O; Bip = N[C@@H](Cc1ccc(-c2ccccc2)cc1)C(=O)O; NH(CH2)14COOH = O=C(O)CCCCCCCCCCCCCCN*; Phe(3-F) = N[C@@H](Cc1cccc(F)c1)C(=O)O; Phe(3-Me) = Cc1cccc(C[C@H](N)C(=O)O)c1; NH(CH2)12COOH = O=C(O)CCCCCCCCCCCCN*; Val(3-OH) = CC(C)(O)[C@H](N)C(=O)O; Cha = N[C@@H](CC1CCCCC1)C(=O)O; Ile(3ξ) = CCC(C)[C@H](N)C(=O)O; Thr(3ξ) = CC(O)[C@H](N)C(=O)O; dDab = NCC[C@@H](N)C(=O)O; Carboxymethyl = O=C(O)C*; NMeA = CN[C@@H](C)C(=O)O; Aun = NCCCCCCCCCCC(=O)O; Dab = NCC[C@H](N)C(=O)O; AEEA = NCCOCCOCC(=O)O
# Biological target: T1, PD-1/PD-L1 interaction (PE-labeled human PD-L1-Ig binding to Jurkat cell line over-expressing human PD-1) (Homo sapiens, UniProt Q15116)
# T1 construct: expressed in transfected cells; host or cells: Jurkat
# T1 sequence (Q15116 25-288): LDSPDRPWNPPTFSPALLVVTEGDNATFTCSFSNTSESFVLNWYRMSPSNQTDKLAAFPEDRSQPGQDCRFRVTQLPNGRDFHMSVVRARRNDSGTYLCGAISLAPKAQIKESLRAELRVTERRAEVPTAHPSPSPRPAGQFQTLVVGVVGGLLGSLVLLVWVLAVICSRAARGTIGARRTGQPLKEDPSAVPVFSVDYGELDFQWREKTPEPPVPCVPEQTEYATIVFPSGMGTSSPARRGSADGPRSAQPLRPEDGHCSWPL
# Assay: Jurkat-PD-1 Cell Binding High-Content Screening Assay (CBA)
# Details: PE-labeled PD-L1-Ig 20 nM final, Jurkat-hPD-1 cells; read-out: Jurkat HPD1 PDL1 IC50
# Procedure, shortened: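 Jurkat-hPD-1 cells (8×10^3/well) in DMEM with 10% fetal calf serum were preincubated with compound for 2 h at 37 °C. PE-labeled PD-L1-Ig was then added at 20 nM final for 1 h. Cells were fixed in paraformaldehyde with Hoechst 33342, washed and imaged by high-content imaging.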
row,Structure (SMILES),IC50 [nM]
1,CCC(C)[C@@H]1NC(=O)[C@H](Cc2ccc(-c3ccccc3)cc2)NC(=O)[C@H](Cc2ccc(C(F)(F)F)cc2)NC(=O)[C@H](Cc2c[nH]c3ccccc23)NC(=O)[C@H](CC(=O)O)NC(=O)[C@H](Cc2ccc(OCC(=O)O)cc2)NC(=O)[C@H](Cc2cnc[nH]2)NC(=O)CSC[C@@H](C(=O)N[C@@H](CCN)C(=O)NCCOCCOCC(=O)NCCCCCCCCCCC(=O)O)NC(=O)[C@H](CCC(=O)O)NC(=O)[C@H](C(C)(C)O)NC(=O)[C@H](CC2CCCCC2)NC(=O)[C@H](CCN)NC(=O)[C@@H](CC(C)C)NC(=O)[C@H](C)N(C)C1=O (stereo partly drawn) [Example 2590] ({CH2CO}-HY(Carboxymethyl)DW[Phe(4-CF3)][Bip][Ile(3ξ)][NMeA][dL][Dab][Cha][Val(3-OH)]EC[Dab][AEEA][Aun]-OH; thioether N-14),185
2,CCC(C)[C@@H]1NC(=O)[C@H](Cc2ccc(-c3ccccc3)cc2)NC(=O)[C@H](C(C)C)NC(=O)[C@H](Cc2c[nH]c3ccccc23)NC(=O)[C@H](CC(=O)O)NC(=O)[C@H](Cc2ccc(OCC(=O)O)cc2)NC(=O)[C@H](Cc2cnc[nH]2)NC(=O)CSC[C@@H](C(=O)N[C@@H](CCN)C(=O)NCCOCCOCC(=O)NCCCCCCCCCCC(=O)O)NC(=O)[C@H](CCC(=O)O)NC(=O)[C@H](C(C)(C)O)NC(=O)[C@H](CC2CCCCC2)NC(=O)[C@H](CCN)NC(=O)[C@@H](CC(C)C)NC(=O)[C@H](C)N(C)C1=O (stereo partly drawn) [Example 2591] ({CH2CO}-HY(Carboxymethyl)DWV[Bip][Ile(3ξ)][NMeA][dL][Dab][Cha][Val(3-OH)]EC[Dab][AEEA][Aun]-OH; thioether N-14),3.1
3,CCC(C)[C@@H]1NC(=O)[C@H](Cc2ccc(-c3ccccc3)cc2)NC(=O)[C@H](Cc2ccc(C(F)(F)F)cc2)NC(=O)[C@H](Cc2cccc(F)c2)NC(=O)[C@H](CC(=O)O)NC(=O)[C@H](Cc2ccc(OCC(=O)O)cc2)NC(=O)[C@H](Cc2cnc[nH]2)NC(=O)CSC[C@@H](C(=O)N[C@@H](CCN)C(=O)NCCOCCOCC(=O)NCCCCCCCCCCC(=O)O)NC(=O)[C@H](CCC(=O)O)NC(=O)[C@H](C(C)C)NC(=O)[C@H](CC2CCCCC2)NC(=O)[C@H](CCN)NC(=O)[C@@H](CC(C)C)NC(=O)[C@H](C)N(C)C1=O (stereo partly drawn) [Example 2592] ({CH2CO}-HY(Carboxymethyl)D[Phe(3-F)][Phe(4-CF3)][Bip][Ile(3ξ)][NMeA][dL][Dab][Cha]VEC[Dab][AEEA][Aun]-OH; thioether N-14),89.6
4,CC(=O)NCCCC[C@@H]1NC(=O)[C@H](C(C)(C)O)NC(=O)[C@H](CC2CCCCC2)NC(=O)[C@H](CCN)NC(=O)[C@@H](CC(C)C)NC(=O)[C@H](C)N(C)C(=O)[C@H](CCC(N)=O)NC(=O)[C@H](Cc2ccc(-c3ccccc3)cc2)NC(=O)[C@H](Cc2ccc(C(F)(F)F)cc2)NC(=O)[C@H](Cc2cccc(C)c2)NC(=O)[C@H](CC(=O)O)NC(=O)[C@H](Cc2ccc(OCC(=O)O)cc2)NC(=O)[C@H](Cc2ccc(OCC(=O)O)cc2)NC(=O)CSC[C@@H](C(=O)N[C@@H](CCN)C(=O)NCCOCCOCC(=O)NCCCCCCCCCCC(=O)O)NC1=O [Example 2593] ({CH2CO}-Y(Carboxymethyl)Y(Carboxymethyl)D[Phe(3-Me)][Phe(4-CF3)][Bip]Q[NMeA][dL][Dab][Cha][Val(3-OH)]K(Ac)C[Dab][AEEA][Aun]-OH; thioether N-14),9
5,CC(=O)NCCCC[C@@H]1NC(=O)[C@H](C(C)(C)O)NC(=O)[C@H](CC2CCCCC2)NC(=O)[C@H](CCN)NC(=O)[C@@H](CC(C)C)NC(=O)[C@H](C)N(C)C(=O)[C@H](Cc2ccc(C(F)(F)F)cc2)NC(=O)[C@H](Cc2ccc(-c3ccccc3)cc2)NC(=O)[C@H](Cc2ccc(C(=O)O)cc2)NC(=O)[C@H](Cc2cccc(C)c2)NC(=O)[C@H](CC(=O)O)NC(=O)[C@H](Cc2ccc(OCC(=O)O)cc2)NC(=O)[C@H](Cc2ccc(OCC(=O)O)cc2)NC(=O)CSC[C@@H](C(=O)N[C@@H](CCN)C(=O)NCCOCCOCC(=O)NCCCCCCCCCCC(=O)O)NC1=O [Example 2594] ({CH2CO}-Y(Carboxymethyl)Y(Carboxymethyl)D[Phe(3-Me)][Phe(4-COOH)][Bip][Phe(4-CF3)][NMeA][dL][Dab][Cha][Val(3-OH)]K(Ac)C[Dab][AEEA][Aun]-OH; thioether N-14),5.7
6,CC(=O)NCCCC[C@@H]1NC(=O)[C@H](C(C)(C)O)NC(=O)[C@H](CC2CCCCC2)NC(=O)[C@H](CCN)NC(=O)[C@@H](CC(C)C)NC(=O)[C@H](C)N(C)C(=O)[C@H](CCC(N)=O)NC(=O)[C@H](Cc2ccc(-c3ccccc3)cc2)NC(=O)[C@H](Cc2ccc(C(=O)O)cc2)NC(=O)[C@H](Cc2cccc(C)c2)NC(=O)[C@H](CC(=O)O)NC(=O)[C@H](Cc2ccc(C(F)(F)F)cc2)NC(=O)[C@H](Cc2ccc(OCC(=O)O)cc2)NC(=O)CSC[C@@H](C(=O)N[C@@H](CCN)C(=O)NCCOCCOCC(=O)NCCCCCCCCCCC(=O)O)NC1=O [Example 2595] ({CH2CO}-Y(Carboxymethyl)[Phe(4-CF3)]D[Phe(3-Me)][Phe(4-COOH)][Bip]Q[NMeA][dL][Dab][Cha][Val(3-OH)]K(Ac)C[Dab][AEEA][Aun]-OH; thioether N-14),11.7
7,CC(=O)NCCCC[C@@H]1NC(=O)[C@H](C(C)(C)O)NC(=O)[C@H](CC2CCCCC2)NC(=O)[C@H](CCN)NC(=O)[C@@H](CC(C)C)NC(=O)[C@H](C)N(C)C(=O)[C@H](CCC(N)=O)NC(=O)[C@H](Cc2ccc(-c3ccccc3)cc2)NC(=O)[C@H](Cc2ccc(C(=O)O)cc2)NC(=O)[C@H](Cc2cccc(C)c2)NC(=O)[C@H](CC(=O)O)NC(=O)[C@H](Cc2ccc(OCC(=O)O)cc2)NC(=O)[C@H](Cc2ccc(C(F)(F)F)cc2)NC(=O)CSC[C@@H](C(=O)N[C@@H](CCN)C(=O)NCCOCCOCC(=O)NCCCCCCCCCCC(=O)O)NC1=O [Example 2596] ({CH2CO}-[Phe(4-CF3)]Y(Carboxymethyl)D[Phe(3-Me)][Phe(4-COOH)][Bip]Q[NMeA][dL][Dab][Cha][Val(3-OH)]K(Ac)C[Dab][AEEA][Aun]-OH; thioether N-14),2.7
8,CC(=O)NCCCC[C@@H]1NC(=O)[C@H](C(C)(C)O)NC(=O)[C@H](CC2CCCCC2)NC(=O)[C@H](CCN)NC(=O)[C@@H](CC(C)C)NC(=O)[C@H](C)N(C)C(=O)[C@H](CCC(N)=O)NC(=O)[C@H](Cc2ccc(-c3ccccc3)cc2)NC(=O)[C@H](Cc2ccc(CCC(=O)O)cc2)NC(=O)[C@H](Cc2cccc(C(F)(F)F)c2)NC(=O)[C@H](CC(=O)O)NC(=O)[C@H](Cc2ccc(OCC(=O)O)cc2)NC(=O)[C@H](Cc2ccc(OCC(=O)O)cc2)NC(=O)CSC[C@@H](C(=O)N[C@@H](CCN)C(=O)NCCOCCOCC(=O)NCCCCCCCCCCC(=O)O)NC1=O [Example 2597] ({CH2CO}-Y(Carboxymethyl)Y(Carboxymethyl)D[Phe(3-CF3)][Phe(4-CH2CH2COOH)][Bip]Q[NMeA][dL][Dab][Cha][Val(3-OH)]K(Ac)C[Dab][AEEA][Aun]-OH; thioether N-14),3.3
9,CC(=O)NCCCC[C@@H]1NC(=O)[C@H](C(C)C)NC(=O)[C@H](CC2CCCCC2)NC(=O)[C@H](CCN)NC(=O)[C@@H](CC(C)C)NC(=O)[C@H](C)N(C)C(=O)[C@H](CCC(N)=O)NC(=O)[C@H](Cc2ccc(-c3ccccc3)cc2)NC(=O)[C@H](Cc2ccc(C(=O)O)cc2)NC(=O)[C@H](Cc2cccc(C(F)(F)F)c2)NC(=O)[C@H](CC(=O)O)NC(=O)[C@H](Cc2ccc(OCC(=O)O)cc2)NC(=O)[C@H](Cc2ccc(OCC(=O)O)cc2)NC(=O)CSC[C@@H](C(=O)N[C@@H](CCN)C(=O)NCCOCCOCC(=O)NCCCCCCCCCCC(=O)O)NC1=O [Example 2598] ({CH2CO}-Y(Carboxymethyl)Y(Carboxymethyl)D[Phe(3-CF3)][Phe(4-COOH)][Bip]Q[NMeA][dL][Dab][Cha]VK(Ac)C[Dab][AEEA][Aun]-OH; thioether N-14),2.8
10,CC(=O)NCCCC[C@@H]1NC(=O)[C@H](C(C)(C)O)NC(=O)[C@H](CC2CCCCC2)NC(=O)[C@H](CCN)NC(=O)[C@@H](CC(C)C)NC(=O)[C@H](C)N(C)C(=O)[C@H](CCC(N)=O)NC(=O)[C@H](Cc2ccc(-c3ccccc3)cc2)NC(=O)[C@H](Cc2ccc(C(=O)O)cc2)NC(=O)[C@H](Cc2cccc(C(F)(F)F)c2)NC(=O)[C@H](CC(=O)O)NC(=O)[C@H](Cc2ccc(OCC(=O)O)cc2)NC(=O)[C@H](Cc2ccc(OCC(=O)O)cc2)NC(=O)CSC[C@@H](C(=O)N[C@H](CCN)C(=O)NCCCCCCCCCCCCC(=O)O)NC1=O [Example 2599] ({CH2CO}-Y(Carboxymethyl)Y(Carboxymethyl)D[Phe(3-CF3)][Phe(4-COOH)][Bip]Q[NMeA][dL][Dab][Cha][Val(3-OH)]K(Ac)C[dDab]-{NH(CH2)12COOH}; thioether N-14),28.2
11,CC(=O)NCCCC[C@@H]1NC(=O)[C@H](C(C)(C)O)NC(=O)[C@H](CC2CCCCC2)NC(=O)[C@H](CCN)NC(=O)[C@@H](CC(C)C)NC(=O)[C@H](C)N(C)C(=O)[C@H](CCCNC(=N)N)NC(=O)[C@H](Cc2ccc(-c3ccccc3)cc2)NC(=O)[C@H](Cc2ccc(C(=O)O)cc2)NC(=O)[C@H](Cc2cccc(C(F)(F)F)c2)NC(=O)[C@H](CC(=O)O)NC(=O)[C@H](Cc2ccc(OCC(=O)O)cc2)NC(=O)[C@H](Cc2ccc(OCC(=O)O)cc2)NC(=O)CSC[C@@H](C(=O)N[C@@H](CCN)C(=O)NCCCCCCCCCCCCC(=O)O)NC1=O [Example 2600] ({CH2CO}-Y(Carboxymethyl)Y(Carboxymethyl)D[Phe(3-CF3)][Phe(4-COOH)][Bip]R[NMeA][dL][Dab][Cha][Val(3-OH)]K(Ac)C[Dab]-{NH(CH2)12COOH}; thioether N-14),5.5
12,CC(C)C[C@H]1NC(=O)[C@H](C)N(C)C(=O)[C@H](Cc2ccc(OCC(=O)O)cc2)NC(=O)[C@H](Cc2ccc(-c3ccccc3)cc2)NC(=O)[C@H](Cc2ccc(C(=O)O)cc2)NC(=O)[C@H](Cc2cccc(C(F)(F)F)c2)NC(=O)[C@H](CC(=O)O)NC(=O)[C@H](Cc2ccc(OCC(=O)O)cc2)NC(=O)[C@H](C(C)O)NC(=O)CSC[C@@H](C(=O)N[C@@H](CCN)C(=O)NCCCCCCCCCCCCCCC(=O)O)NC(=O)[C@H](CCC(=O)O)NC(=O)[C@H](C(C)C)NC(=O)[C@H](CC2CCCCC2)NC(=O)[C@H](CCN)NC1=O (stereo partly drawn) [Example 2602] ({CH2CO}-[Thr(3ξ)]Y(Carboxymethyl)D[Phe(3-CF3)][Phe(4-COOH)][Bip]Y(Carboxymethyl)[NMeA][dL][Dab][Cha]VEC[Dab]-{NH(CH2)14COOH}; thioether N-14),192

# — patent US20260070945A1, “MACROCYCLIC IMMUNOMODULATORS” (Bristol-Myers Squibb Company, priority 2022, published 2026)
